Positions of bridges follow the written chain, without caps; N, C: chain ends. No end group written: not given here.
How the values were obtained:
delta PKC [1] = molecular target: T1, delta PKC (Homo sapiens, UniProt Q05655); test: In vitro kinase assay, histone phosphorylation by delta PKC; format: biochemical
T1 construct: purchased Panvera LLC, now Invitrogen Corporation
Protocol: In another study, the ability of annexin V to increase the catalytic activity of delta PKC in vitro was evaluated. Full-length, recombinant delta PKC (SEQ ID NO:3) and epsilon PKC (SEQ ID NO:6) were separately incubated in the presence of kinase buffer, ATP, or histone, as described in Example 3. Activators of PKC, phosphatidylserine (PS) and diacylglycerol (DAG), were added along with annexin V, JTV-519, a 1,4 benzothiazepine derivative that activates delta PKC (Inagaki, K. et al., Circulation, 101:797 (2000)), or a mixture of annexin V and JTV-519.
200 ng of pure delta PKC or epsilon PKC (Panvera LLC, now Invitrogen Corporation, Carlsbad, Calif.) were incubated in 100 μL kinase buffer (20 mM Tris pH 7.4, 50 mM MgCl2, 0.3 μCi/reaction [γ-^32P]ATP (Amersham Biosciences), 9 μM/reaction ATP (Sigma), 30 μg/reaction myelin basic protein or histone A1 (Sigma); 100 μM lipid vesicle mixture (90% phosphatidylserine (PS): 10% diacylglycerol (DAG)), 1 mM CaCl2, 1 μM JTV519, and/or 20 ng of Annexin V/reaction were added, where applicable. The kinase reaction was stopped by the addition of SDS sample buffer, and extent of histone phosphorylation assessed after separation on 15% SDS-PAGE and transfer onto nitrocellulose membrane by autoradiography.

[2] = molecular target: T2, annexin V and delta PKC interaction (Homo sapiens, UniProt Q05655); test: Cross-linking immuno-precipitation of delta PKC probed with anti-annexin V in cardiac myocytes; format: cell-based; details: cardiac myocytes stimulated with the agent, FIG. 5
T2 construct: endogenous in cells; host or cells: cardiomyocytes
T2 sequence (Q05655 whole entry): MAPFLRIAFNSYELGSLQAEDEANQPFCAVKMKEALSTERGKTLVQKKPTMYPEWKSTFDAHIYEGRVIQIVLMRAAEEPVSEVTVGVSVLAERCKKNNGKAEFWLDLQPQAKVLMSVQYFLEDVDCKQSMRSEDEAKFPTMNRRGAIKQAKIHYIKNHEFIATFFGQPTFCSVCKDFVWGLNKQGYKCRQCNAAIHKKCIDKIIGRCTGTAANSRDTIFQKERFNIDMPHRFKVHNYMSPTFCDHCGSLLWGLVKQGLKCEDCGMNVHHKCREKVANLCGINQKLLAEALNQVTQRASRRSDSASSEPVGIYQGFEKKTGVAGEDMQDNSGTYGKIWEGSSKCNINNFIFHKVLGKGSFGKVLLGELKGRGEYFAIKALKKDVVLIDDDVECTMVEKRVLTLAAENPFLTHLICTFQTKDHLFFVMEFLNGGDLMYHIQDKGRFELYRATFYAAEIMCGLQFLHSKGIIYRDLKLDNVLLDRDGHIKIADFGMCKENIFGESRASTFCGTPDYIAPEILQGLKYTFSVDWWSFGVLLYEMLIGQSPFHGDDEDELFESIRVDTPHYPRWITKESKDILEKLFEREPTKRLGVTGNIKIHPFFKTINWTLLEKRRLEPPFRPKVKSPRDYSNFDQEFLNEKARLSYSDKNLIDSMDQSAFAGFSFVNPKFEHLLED
Protocol: Example 4 describes a study where cardiac myocytes were stimulated with a selected agent and then immuno-precipitated with anti-delta PKC after cross-linking. The cell lysates were then probed with anti-annexin V and visualized with ECL Western blotting. […] The stimulation agent was applied to the cells for times of between 30 seconds to 20 minutes, prior to lysing.
Cardiomyocytes were treated with phorbol 12-myristate 13-acetate (PMA; 10 nM), hydrogen peroxide (H2O2; 5 mM), JTV-519, or delta V1-1 peptide (1 μM) and JTV-519 (1 μM), for times of between 30 seconds to 5 minutes. After the lapsed time, the cells were washed with cold PBS, and homogenized on ice with trituration in homogenization buffer (20 mM Tris pH 7.4, 2 mM EDTA, 10 mM EGTA, 0.25M sucrose, 12 mM O-mercaptoethanol, and protease inhibitor cocktail (Sigma), 0.1% formaldehyde. After 30 min at 4° C., the lysates were quenched with 0.14M glycine for 20 min at 4° C., and samples spun at 14K rpm at 4° C. The supernatant was incubated with 1 μg anti-delta PKC antibody (Santa Cruz Biotechnology, Inc., Santa Cruz, Calif.) for 1 hour, then with proteinG beads (Invitrogen Corporation) for 3 hours at 4° C. The beads where then washed with wash buffer (20 mM Tris pH 7.5, 2 mM EDTA, 100 mM NaCl, 12 mM β-mercaptoethanol, 0.1% Triton), and separated on 7.5% SDS-PAGE, transferred to nitrocellulose, and probed with anti-annexin V (Santa Cruz Biotechnology, Inc., Santa Cruz, Calif.), followed by visualization by ECL Western blotting.

[3] = molecular target: T3, delta PKC/annexin V interaction (Cricetulus griseus, UniProt A0A8C2N0P5); test: Cross-linking co-immunoprecipitation of annexin V and delta PKC in CHO cells; format: cell-based
T3 construct: endogenous in cells; host or cells: CHO cells
T3 sequence (A0A8C2N0P5 1-676): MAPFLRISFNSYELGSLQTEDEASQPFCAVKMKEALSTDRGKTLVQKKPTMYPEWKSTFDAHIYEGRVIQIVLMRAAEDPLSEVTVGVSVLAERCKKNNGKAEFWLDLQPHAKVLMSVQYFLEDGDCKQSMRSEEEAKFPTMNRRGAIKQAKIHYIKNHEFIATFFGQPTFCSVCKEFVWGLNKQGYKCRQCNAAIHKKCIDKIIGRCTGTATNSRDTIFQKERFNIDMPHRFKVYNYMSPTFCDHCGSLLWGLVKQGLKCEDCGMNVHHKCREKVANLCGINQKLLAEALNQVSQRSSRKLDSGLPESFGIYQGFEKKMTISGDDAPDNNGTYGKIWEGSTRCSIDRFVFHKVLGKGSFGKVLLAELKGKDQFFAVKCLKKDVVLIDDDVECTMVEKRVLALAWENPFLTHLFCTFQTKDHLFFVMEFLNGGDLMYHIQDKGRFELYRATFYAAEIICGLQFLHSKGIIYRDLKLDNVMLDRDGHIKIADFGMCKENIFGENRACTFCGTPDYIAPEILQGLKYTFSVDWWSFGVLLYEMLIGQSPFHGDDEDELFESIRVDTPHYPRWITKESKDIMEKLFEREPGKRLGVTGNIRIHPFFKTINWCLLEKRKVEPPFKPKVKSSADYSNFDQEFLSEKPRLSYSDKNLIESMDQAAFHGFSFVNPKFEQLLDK
T3 sequence (G3I5A4 1-321 partner): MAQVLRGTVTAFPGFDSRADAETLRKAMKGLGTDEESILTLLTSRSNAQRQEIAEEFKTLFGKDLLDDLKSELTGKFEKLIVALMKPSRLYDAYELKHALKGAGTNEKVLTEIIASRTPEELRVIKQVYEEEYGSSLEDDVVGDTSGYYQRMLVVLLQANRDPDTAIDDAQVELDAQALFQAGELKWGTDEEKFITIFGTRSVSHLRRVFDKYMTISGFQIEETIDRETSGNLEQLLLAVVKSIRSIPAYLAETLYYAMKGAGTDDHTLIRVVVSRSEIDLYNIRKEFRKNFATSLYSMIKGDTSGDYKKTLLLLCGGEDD
Protocol: A similar study was conducted to further evaluate the in vitro, intracellular interactions of delta PKC and annexin V. Cellular interactions of delta PKC/annexin V interaction in CHO cells were stabilized with a cross-linking agent, after stimulation with 10 nM PMA. The complexes formed with delta PKC were then immuno-precipitated and tested for the presence of annexin V. The SDS-PAGE gel is shown in FIG. 6A and a corresponding graph quantifying percent association of annexin V and delta PKC as a function of time is shown in FIG. 6B. […] The interaction is relatively short-lived, and the proteins disassociated after 1 minute of stimulation.
The effect of JTV-519, an activator of delta PKC, on the association of annexin V and delta PKC was also evaluated in this study. Cells were treated with JTV-519, and the association of annexin V and delta PKC was examined using the co-immunoprecipitation procedure described above. […] PMA caused the disassociation of the JTV-induced complex at 30 seconds, the time of maximal PMA-induced association. […] Whereas the cytosolic fraction of the cells contained a steady low level of the complex, the majority of the complex was found in the particulate fraction of the cells, and disappearance from the particulate fraction followed the same time-course as observed in whole cell lysates (compare FIG. 6D bottom panel with FIG. 6B).

isolated rat hearts = test: Ex vivo ischemia/reperfusion in isolated rat hearts; details: for infarct size: treated 10 minutes prior to 30 minutes ischemia, 60 minutes reperfusion, FIG. 9A
Protocol: The physiologic impact of disruption of the delta PKC-annexin V complex was evaluated in an ex vivo ischemia/reperfusion study using the annexin V peptide, TAT-AnxV, and its mutant, TAT-AnxV(R→E). As described in Example 7, isolated rat hearts were treated with TAT-AnxV or TAT-AnxV(R→E) for 10 minutes prior to induction of an ischemic episode. The ischemic episode lasted for 30 minutes, at which time flow to the heart was returned for 60 minutes (reperfusion). After the reperfusion period, cardiac effluent was collected and analyzed for creatine phosphokinase (CPK). The hearts were stained and visually inspected for live and dead tissue. Infarct size was measured by taking the average of the dead (white) tissue on both sides of the tissue slice.
A similar study was conducted, except rather than pretreating the isolated hearts with the annexin V peptide, the peptide was administered after the ischemic event and during the initial 10 minutes of the reperfusion period. Hearts were similarly treated with the mutant peptide, TAT-AnxV(R→E).
Rats were anesthetized and their hearts were rapidly removed and cannulated via the aorta for retrograde perfusion (Colbert, M. et al., J. Clin. Invest., 100:1958 (1997)). The hearts were left untreated, or were pretreated with the annexin V peptide, conjugated to TAT, (TAT-AnxV, SEQ ID NO:29) or with its mutant, TAT-AnxV(R→E) (SEQ ID NO:31), for 10 minutes prior to a 30 minutes of ischemia. Ischemia was induced by interrupting flow for 30 minutes and then reestablishing flow for 60 minutes (reperfusion). Cardiac effluent was collected for 15 minutes after reperfusion and assayed for creatine phosphokinase (CPK) using a Sigma kit. Hearts were stained with 2,3,5-triphenyltetrazolium chloride ([…]) to visualize live tissue (red) and dead tissue (white), and infarct size was measured by taking the average of the white area on both sides of the tissue slice (n=3, p<0.05). Results are shown in FIGS. 9A-9B and FIGS. 10A-10B.

delta PKC [4] = molecular target: T4, delta PKC (Cricetulus griseus, UniProt A0A8C2N0P5); test: Translocation of delta PKC to the membrane fraction of CHO cells upon PMA stimulation; format: cell-based; details: CHO cells pretreated 1 μM for 15 minutes, PMA 10 nM for 5 minutes, FIGS. 8A-8B
T4 construct: endogenous in cells; host or cells: CHO cells
T4 sequence (A0A8C2N0P5 1-676): as the sequence (A0A8C2N0P5 1-676) above
Protocol: The ability of the annexin V peptide to block the intracellular interaction of delta PKC and annexin V was illustrated in the following study. The annexin V peptide (SEQ ID NO: 1) was conjugated to a TAT47-57 carrier peptide (SEQ ID NO:26) through an N-terminal Cys-Cys bond, as previously described (Chen, L. et al., Proc. Natl. Acad. Sci. USA, 98:11114-9 ((2001)). This peptide, identified herein as SEQ ID NO:29 and referred to as TAT-AnxV peptide, was used to pretreat (1 μM for 15 minutes) CHO cells prior to stimulation with PMA (10 nM for 5 minutes). For comparison, the annexin V peptide sequence was modified at the Arg (R) residue with a Glu (E) residue, to form a peptide having the sequence LQANEDPD, identified herein as SEQ ID NO:30. Substitution of E for R confers a charge difference between annexin V and delta PKC. This peptide was also attached to a TAT carrier peptide via N-terminal modification with a Cys-Cys bond. The conjugate is referred to herein as TAT-AnxV(R→E) (SEQ ID NO:31) and is denoted in some figures as “EpAnxV.” Cells were similarly pretreated with TAT-AnxV(R→E), prior to stimulation with PMA. As controls, some cells were left untreated and other cells were exposed only to PMA. […]

T1 sequence (Q05655 whole entry): as the sequence (Q05655 whole entry) above

Compound | catalytic activity of delta PKC (histone phosphorylation) (delta PKC [1]; in the presence of PS/DAG, FIG. 4A) | catalytic activity of delta PKC (histone phosphorylation) (delta PKC [1]; in the presence of annexin V and PS/DAG, FIG. 4A Lane 5) | interaction of annexin V and delta PKC [2] | association of annexin V and delta PKC ([3]; basal conditions, FIGS. 6A-B) | cellular localization of the delta PKC-annexin V complex ([3]; soluble versus particulate fraction, FIG. 6D) | infarct size (isolated rat hearts) | creatine phosphokinase (CPK) released (isolated rat hearts; treated 10 minutes prior to ischemia, FIG. 9B) | translocation of delta PKC to the cell membrane (delta PKC [4])
COc1ccc2c(c1)CN(C(=O)CCN1CCC(Cc3ccccc3)CC1)CCS2 [JTV-519] | about the same extent as observed for delta PKC in the presence of PS/DAG alone | blocked the increased catalytic activity observed with annexin V | greatly enhanced | full association | most of the δPKC-annexin V complex remained in the soluble fraction | – | – | –
TAT-AnxV: conjugate of SEQ ID NO:1 joined to a TAT carrier peptide through an N-terminal cysteine-cysteine bond (YGRKKRRQRRRCCLQANRDPD; disulfide 12-13 (inferred)) | – | – | – | – | – | statistically significant decrease in infarct size | reduced level of creatine phosphokinase | blocked the translocation of delta PKC
TAT-AnxV(R→E): conjugate of SEQ ID NO:30 joined to a TAT carrier peptide through an N-terminal cysteine-cysteine bond (YGRKKRRQRRRCCLQANEDPD; disulfide 12-13 (inferred)) | – | – | – | – | – | did not inhibit the delta PKC-induced damage | – | lost its inhibitory effect on delta PKC translocation
